Reference: patent US6914045B2, “Glycopeptide antibiotics” (Wyeth Holdings Corporation, priority 2001, dated 2005)
≈ marks a conversion by molar mass, not a printed value.

Legend:
Assay in all cases: in vitro antibacterial evaluation, MIC by broth dilution
Format in all cases: cell-based
Escherichia coli = conditions: 18 hours at 35° C.
Streptococcus sp. = conditions: broth dilution, 18 hours at 35° C.
Method in brief: (§1)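 Read-out: the lowest concentration at which the test strain fails to grow. Serial dilutions (64-0.06 μg/mL) in Muller-Hinton II […], 5×10^5 CFU/mL inoculum, NCCLS M7-A2 procedure.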

Enterococcus sp. = conditions: broth dilution, 18 hours at 35° C.
Method in brief: as §1

Staphylococcus sp. = conditions: broth dilution, 18 hours at 35° C.
Method in brief: as §1

- MIC Escherichia coli (ATCC 25922) (Escherichia coli): 32 µg/mL (≈ 22.6 µM)
- MIC Escherichia coli (GC 4559) (Escherichia coli): 32 µg/mL (≈ 22.6 µM)
- MIC Escherichia coli (GC 4560) (Escherichia coli): 2 µg/mL (≈ 1.41 µM)
- MIC Streptococcus agalactiae (GC 4564) (Streptococcus sp.): 1 µg/mL (≈ 0.706 µM)
- MIC Streptococcus pneumoniae (ATCC 6301) (Streptococcus sp.): 0.5 µg/mL (≈ 0.353 µM)
- MIC Streptococcus pneumoniae (GC 1894) (Streptococcus sp.): <0.06 µg/mL
- MIC Streptococcus pneumoniae (GC 4565) (Streptococcus sp.): 0.25 µg/mL (≈ 0.177 µM)
- MIC Streptococcus pyogenes (GC 4563) (Streptococcus sp.): 1 µg/mL (≈ 0.706 µM)
- MIC Streptococcus pneumoniae (ATCC 6301) (Streptococcus sp.; inoculum 5×10^5 CFU/mL, strain ATCC 6301): 0.5 µg/mL (≈ 0.353 µM)
- MIC Streptococcus pneumoniae (GC 1894) (Streptococcus sp.; inoculum 5×10^5 CFU/mL, strain GC 1894): <0.06 µg/mL
- MIC Streptococcus pyogenes (GC 4563) (Streptococcus sp.; inoculum 5×10^5 CFU/mL, strain GC 4563): 1 µg/mL (≈ 0.706 µM)
- MIC Streptococcus agalactiae (GC 4564) (Streptococcus sp.; inoculum 5×10^5 CFU/mL, strain GC 4564): 1 µg/mL (≈ 0.706 µM)
- MIC Streptococcus pneumoniae (GC 4565) (Streptococcus sp.; inoculum 5×10^5 CFU/mL, strain GC 4565): 0.25 µg/mL (≈ 0.177 µM)
- MIC Enterococcus avium (GC 4558) (Enterococcus sp.): 4 µg/mL (≈ 2.83 µM)
- MIC Enterococcus faecalis (ATCC 29212) (Enterococcus sp.): 8 µg/mL (≈ 5.65 µM)
- MIC Enterococcus faecalis (GC 2242) (Enterococcus sp.): 8 µg/mL (≈ 5.65 µM)
- MIC Enterococcus faecalis (GC 2691) (Enterococcus sp.): 8 µg/mL (≈ 5.65 µM)
- MIC Enterococcus faecalis (GC 3059) (Enterococcus sp.): 8 µg/mL (≈ 5.65 µM)
- MIC Enterococcus faecalis (GC 4552) (Enterococcus sp.): 8 µg/mL (≈ 5.65 µM)
- MIC Enterococcus faecalis (GC 4553) (Enterococcus sp.): 8 µg/mL (≈ 5.65 µM)
- MIC Enterococcus faecalis (GC 4554) (Enterococcus sp.): 8 µg/mL (≈ 5.65 µM)
- MIC Enterococcus faecalis (GC 6189) (Enterococcus sp.): 8 µg/mL (≈ 5.65 µM)
- MIC Enterococcus faecium (GC 2243) (Enterococcus sp.): 8 µg/mL (≈ 5.65 µM)
- MIC Enterococcus faecium (GC 4556) (Enterococcus sp.): 8 µg/mL (≈ 5.65 µM)
- MIC Enterococcus faecium (GC 4557) (Enterococcus sp.): 4 µg/mL (≈ 2.83 µM)
- MIC Enterococcus faecalis (ATCC 29212) (Enterococcus sp.; inoculum 5×10^5 CFU/mL, strain ATCC 29212): 8 µg/mL (≈ 5.65 µM)
- MIC Enterococcus faecalis (GC 2242) (Enterococcus sp.; inoculum 5×10^5 CFU/mL, strain GC 2242): 8 µg/mL (≈ 5.65 µM)
- MIC Enterococcus faecium (GC 2243) (Enterococcus sp.; inoculum 5×10^5 CFU/mL, strain GC 2243): 8 µg/mL (≈ 5.65 µM)
- MIC Enterococcus faecalis (GC 2691) (Enterococcus sp.; inoculum 5×10^5 CFU/mL, strain GC 2691): 8 µg/mL (≈ 5.65 µM)
- MIC Enterococcus faecalis (GC 3059) (Enterococcus sp.; inoculum 5×10^5 CFU/mL, strain GC 3059): 8 µg/mL (≈ 5.65 µM)
- MIC Enterococcus faecalis (GC 4552) (Enterococcus sp.; inoculum 5×10^5 CFU/mL, strain GC 4552): 8 µg/mL (≈ 5.65 µM)
- MIC Enterococcus faecalis (GC 4553) (Enterococcus sp.; inoculum 5×10^5 CFU/mL, strain GC 4553): 8 µg/mL (≈ 5.65 µM)
- MIC Enterococcus faecalis (GC 4554) (Enterococcus sp.; inoculum 5×10^5 CFU/mL, strain GC 4554): 8 µg/mL (≈ 5.65 µM)
- MIC Enterococcus faecium (GC 4556) (Enterococcus sp.; inoculum 5×10^5 CFU/mL, strain GC 4556): 8 µg/mL (≈ 5.65 µM)
- MIC Enterococcus faecium (GC 4557) (Enterococcus sp.; inoculum 5×10^5 CFU/mL, strain GC 4557): 4 µg/mL (≈ 2.83 µM)
- MIC Enterococcus avium (GC 4558) (Enterococcus sp.; inoculum 5×10^5 CFU/mL, strain GC 4558): 4 µg/mL (≈ 2.83 µM)
- MIC Enterococcus faecalis (GC 6189) (Enterococcus sp.; inoculum 5×10^5 CFU/mL, strain GC 6189): 8 µg/mL (≈ 5.65 µM)
- MIC Staphylococcus aureus (ATCC 29213) (Staphylococcus sp.; strain ATCC 29213): 2 µg/mL (≈ 1.41 µM)
- MIC Staphylococcus aureus (GC 1131) (Staphylococcus sp.; strain GC 1131): 4 µg/mL (≈ 2.83 µM)
- MIC Staphylococcus aureus (GC 3051) (Staphylococcus sp.; strain GC 3051): 2 µg/mL (≈ 1.41 µM)
- MIC Staphylococcus aureus (GC 3053) (Staphylococcus sp.; strain GC 3053): 4 µg/mL (≈ 2.83 µM)
- MIC Staphylococcus aureus (GC 4541) (Staphylococcus sp.; strain GC 4541): 2 µg/mL (≈ 1.41 µM)
- MIC Staphylococcus aureus (GC 4542) (Staphylococcus sp.; strain GC 4542): 2 µg/mL (≈ 1.41 µM)
- MIC Staphylococcus aureus-SMITH (GC 4543) (Staphylococcus sp.; strain GC 4543): 2 µg/mL (≈ 1.41 µM)
- MIC Staphylococcus aureus (GC 4544) (Staphylococcus sp.; strain GC 4544): 4 µg/mL (≈ 2.83 µM)
- MIC Staphylococcus aureus (GC 4545) (Staphylococcus sp.; strain GC 4545): 2 µg/mL (≈ 1.41 µM)
- MIC Coagulase Negative Staphylococcus (GC 4547) (Staphylococcus sp.; strain GC 4547): 2 µg/mL (≈ 1.41 µM)
- MIC Coagulase Negative Staphylococcus (GC 4548) (Staphylococcus sp.; strain GC 4548): 2 µg/mL (≈ 1.41 µM)
- MIC Coagulase Negative Staphylococcus (GC 4549) (Staphylococcus sp.; strain GC 4549): 2 µg/mL (≈ 1.41 µM)
- MIC Coagulase Negative Staphylococcus (GC 4551) (Staphylococcus sp.; strain GC 4551): 2 µg/mL (≈ 1.41 µM)
- MIC Coagulase Negative Staphylococcus (GC 6257) (Staphylococcus sp.; strain GC 6257): 1 µg/mL (≈ 0.706 µM)
Compound: CC(c1ccccc1)C1NC(=O)CNC(=O)C(CO)NC(=O)C(C(O)C2CNC(=N)N2C2OC(CO)C(O)C(O)C2O)NC(=O)C(C(O)C2CNC(=N)N2)NC(=O)C(Cc2ccc(OC3OC(CO)C(OC4OC5COC6(OC5C(O)C4O)C4CCCC6CCC4)C(O)C3O)cc2)NC1=O (stereo not shown) [Example 212]
- MIC Staphylococcus haemolyticus (GC 4546) (Staphylococcus sp.; strain GC 4546): 2 µg/mL (≈ 1.41 µM)
